The source of these data is patent US5646155A, “Drugs to prevent recurrent herpes virus infections” (priority 1994, dated 1997).

Values after ≈ are worked out from the molar mass of the structure shown. Where two headings read alike, the source gives them in different places. Where only a bound is given, the exact number is not on record here.

Broadly, the Ki is a measure of affinity in units of concentration, obtained from inhibition or displacement. As usually defined, the IC50 is the concentration that inhibits the measured activity by half. In general, logP refers to the decadic logarithm of the partition coefficient of the neutral form, usually between octanol and water. Read a high logP as a more lipophilic compound.

Data set [1] deals with Varicella Zoster Virus (VZV) Thymidine Kinase (TK) (Varicella-zoster virus, UniProt P09250). As to the kind of experiment: VZV thymidine kinase inhibition (Table 7). The format is biochemical.
Another data set has as its target HSV2 TK (Human herpesvirus 2, UniProt P04407). As to the kind of experiment: HSV2 thymidine kinase inhibition (Table 1). The format is biochemical. An excerpt: kinases (TK) from Herpes simplex virus types 1 and 2 (HSV1, HSV2).
The nature of data set [2]: Solubility in water (Table 1). Conditions: read-out: Sol. in H2O. The format is physicochemical.
Another data set is described as follows: physchem. Particulars: octanol/water.
A further data set addresses HSV1 TK (Human herpesvirus 1, UniProt P0DTH5). As to the kind of experiment: biochemical.
Data set [3] can be described thus: Pharmacokinetics in mice following intraperitoneal administration (Table 3). Particulars: mouse, ip. In kind it is in vivo. The protocol:
Pharmacokinetic parameters of inhibitors in mice
following intraperitoneal (100 mg/Kg) administration (i.p.)
^1 Plasma concentrations were measured by analytical HPLC on a C8
reverse phase column as described in the experimental Section.

A further data set has as its system HSV1, strain McKrae. As to the kind of experiment: Reactivation in vitro of latent HSV1 strain McKrae from explanted mouse ganglia (Table 6). In kind it is cell-based, mice. Conditions: 15 μM drugs, 7 days, supernatant added to Vero cells. The protocol: Screening of compounds is carried out using an in vitro explant cocultivation model in mice. Ocular HSV1 infections are initiated and, after subsidence of the infectious phase (several days), latent HSV1 infection becomes established in the trigeminal ganglia of the mice. The ganglia are then surgically removed and minced or homogenized, and this explanted tissue is cocultivated on mammalian cells, typically Vero cells. The frequency of reactivation is determined as the percentage of ganglia that produce HSV1 virus (as measured by viral cytopathic effect (CPE)) in the cultures. Effective drugs present during the cocultivation period will decrease the frequency of reactivation relative to untreated cocultures. See Leib et al. (J. Virol. 63:759-768 (1989)), incorporated herein by reference, and statements herein for further experimental details.
Latent ocular HSV1 infections were established in mice. Trigeminal gangli
were removed and treated as follows.
^2 Ganglia were minced and incubated for 7 days in the presence of 15
μM drugs; after homogenization, supernatant was added to Vero cells in
culture (courtesy of Dr. Y. J. Gordon, Eye and Ear Institute, Pittsburgh)

A short description of data set [4]: Absorption and distribution in mice (Table 2). The format is in vivo. Conditions: for Vd/F: i.p.; for half-life: plasma. An excerpt: Absorption and distribution of 9-substituted-N^2 -phenylquanines in mice.
*i.v., intravenous; i.p., intraperitoneal.

Data set [5] relates to HSV1. As to the kind of experiment: Hyperthermia-induced HSV1 reactivation in mice, infectious virus (Table 4). The format is in vivo. Particulars: for Infectious Virus, Ganglion / Infectious Virus, Ocular Surface: 200 mg/kg. As to the method:
(§1) Table 5 provides quantitation of viral DNA using quantitative, competitive polymerase chain reaction methods.
(§2) .dagger-dbl.HSV1 latent mice were treated with HBPG (200 mg/kg), stressed
(§3) by immersion in 43° C. water for 10 min, and sacrificed 24 hours
ΔGanglion homogenates and ocular surface swabs were cocultured on
indicator cells and the appearance of cytopathic effect recorded.

Data set [6] relates to HSV1. As to the kind of experiment: Hyperthermia-induced viral DNA synthesis in HSV1 latent mice, QCPCR (Table 5). Conditions: 200 mg/kg, stressed (43° C. water 10 min), ganglionic DNA. The format is in vivo. As to the method:
as §1, §2, §3
ΔGanglionic DNA was amplified in quantitative, competitive
polymerase chain reaction (QCPCR) and the copy number of the viral gene
present determined at the equivalence point.

The next data set has as its system HSV1, strain KOS. Conditions: 150 μM drugs, cocultivated on Vero cells (from Leib et al.); cited from earlier work.
The mark [7] stands for this setting: mouse, in vivo, ip, mice, in 90% DMSO/H2O, read-out: Volume of Distribution.
[8] abbreviates: mouse, ip, mice, in 90% DMSO/H2O.
The mark [9] stands for this setting: stressed (43° C. water 10 min), sacrificed 24 hours later.
[10] abbreviates: mouse, ip, pH 11.3, mice, in saline, pH 11.3.

Chain of Varicella Zoster Virus (VZV) Thymidine Kinase (TK) (P09250 whole entry, looked up): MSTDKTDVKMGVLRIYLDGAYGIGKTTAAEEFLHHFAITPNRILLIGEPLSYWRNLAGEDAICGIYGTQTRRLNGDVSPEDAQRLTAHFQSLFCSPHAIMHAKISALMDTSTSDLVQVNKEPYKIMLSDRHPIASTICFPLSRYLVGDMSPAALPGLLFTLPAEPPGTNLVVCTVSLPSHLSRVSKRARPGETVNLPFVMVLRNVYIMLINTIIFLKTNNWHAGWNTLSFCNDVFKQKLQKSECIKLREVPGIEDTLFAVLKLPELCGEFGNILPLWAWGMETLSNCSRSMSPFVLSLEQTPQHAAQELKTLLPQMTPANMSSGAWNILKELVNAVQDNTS
Chain of HSV2 TK (P04407 whole entry): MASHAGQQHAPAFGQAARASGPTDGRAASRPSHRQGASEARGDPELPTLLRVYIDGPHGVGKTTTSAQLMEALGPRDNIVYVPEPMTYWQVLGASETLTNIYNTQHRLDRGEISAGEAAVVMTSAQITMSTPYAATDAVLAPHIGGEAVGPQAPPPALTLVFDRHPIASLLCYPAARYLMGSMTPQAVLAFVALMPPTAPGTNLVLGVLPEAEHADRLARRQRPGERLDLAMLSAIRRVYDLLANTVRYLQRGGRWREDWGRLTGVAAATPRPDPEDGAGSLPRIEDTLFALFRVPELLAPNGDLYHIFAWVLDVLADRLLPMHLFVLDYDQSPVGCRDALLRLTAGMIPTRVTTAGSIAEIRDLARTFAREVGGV
Chain of HSV1 TK (P0DTH5 whole entry): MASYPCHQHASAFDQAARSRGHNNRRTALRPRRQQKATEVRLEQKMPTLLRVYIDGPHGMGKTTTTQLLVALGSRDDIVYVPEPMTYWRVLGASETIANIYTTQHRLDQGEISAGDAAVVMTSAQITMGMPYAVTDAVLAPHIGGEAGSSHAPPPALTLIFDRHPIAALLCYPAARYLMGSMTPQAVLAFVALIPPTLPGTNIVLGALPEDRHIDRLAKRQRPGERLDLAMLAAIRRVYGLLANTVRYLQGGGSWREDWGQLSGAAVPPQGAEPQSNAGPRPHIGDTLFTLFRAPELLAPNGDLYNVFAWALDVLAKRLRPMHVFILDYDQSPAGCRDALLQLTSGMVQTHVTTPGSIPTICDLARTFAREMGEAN

Consider `CCCCCCCCCCCCNc1nc2nc[nH]c2c(=O)[nH]1` [C12 G, N^2 -(n-Dodecyl)guanine], for which, in data set [1], the Ki came to 3200 nM and the “Mode of inhibition of VZV TK” value is on record as “Competitive inhibitor”.

The compound `CCCCCCCCCCCCCCNc1nc2[nH]cnc2c(=O)[nH]1` [C14 G] gave an IC50 in [1] of 69000 nM.

In the case of `O=c1[nH]c(Nc2ccccc2)nc2c1ncn2CC(O)CSCCO` (stereo not shown) [CH2 CHCH2SCH2 CH2 OH], the IC50 on HSV2 TK (read-out: IC50 HSV2 TK) was found to be 1560 nM. The solubility in [2] came to 29.8 µM (≈ 10.8 µg/mL). The compound also showed a logP in “physchem” of 0.826.

As for `C=CCn1cnc2c(=O)[nH]c(Nc3ccccc3)nc21` [CH2 CHCH2], in data set [2], the solubility stood at 8.1 µM (≈ 2.17 µg/mL). This compound gave a logP in “physchem” of 1.75.

In turn, `O=c1[nH]c(Nc2ccccc2)nc2c1ncn2COC(CO)CO` [CH2OCH(CH2 OH)2] returned an IC50 on HSV1 TK of 500 nM. The solubility in [2] was 113 µM (≈ 37.4 µg/mL). Further, in “physchem”, the logP came out at 0.

On to `O=c1[nH]c(Nc2ccccc2)nc2c1ncn2CC(O)CO` (stereo not shown) [DHP-PG, 9-(2,3-Dihydroxypropyl)-N^2-phenylguanine], for which the solubility in data set [2] came out at 171 µM (≈ 51.4 µg/mL). In data set [3] (in vivo, 100 mg/kg), this compound registered a C0 of 115 µM and a half-life of 17.3 min. Also, the “# ganglia reactivated/# explanted, HSV1 strain McKrae” value in the data set on HSV1, strain McKrae is reported as 4/4. The compound also gave a logP in “physchem” of 0.398.

At HSV2 TK, `O=c1[nH]c(Nc2ccccc2)nc2c1ncn2CCCCO` [HB-PG, 9-(4-Hydroxybutyl)-N^2-phenylguanine] had an IC50 of 2200 nM. The solubility in data set [2] was found to be 56 µM (≈ 16.8 µg/mL). For the same compound, in data set [4] (setting [7]), the Vd/F is 12.7 L/kg. In addition, the half-life in [4] (setting [8]) amounted to 85 min; in [4] (mouse, ip, mice, in corn oil), 55 min. In [3] (in vivo, 100 mg/kg), this compound yielded a C0 of 30.5 µM. In addition, the results for the “Infectious Virus, Ganglion” value with HSV1 [5] (not stressed) and with HSV1 [5] (setting [9]) were 0/8 and 7/18, respectively. The figures for the “Infectious Virus, Ocular Surface” value in the data set with HSV1 [5] (not stressed) and in the data set on HSV1 [5] (setting [9]) were 0/9 and 3/20, respectively. In the data set on HSV1 [5] (vs placebo), the “P, difference in frequency of virus in samples from HBPG-treated compared to placebo-treated animals” value is given as less than 0.05. In the data set with HSV1 [6], the “Viral DNA” value is given as < 1 × 10^2 copies. Besides, the “# ganglia reactivated/# explanted, HSV1 strain McKrae” value in the data set with HSV1, strain McKrae is 2/4. The logP in the data set “physchem” was 1.26.

`O=c1[nH]c(Nc2ccccc2)nc2c1ncn2CCO` [HE-PG, 9-(2-Hydroxyethyl)-N^2-phenylguanine]: the solubility in data set [2] is 156 µM (≈ 42.4 µg/mL). Besides, in data set [4] (mice, i.v., in 90% DMSO/H2O), the Plasma half-life is 15 min and the “Volume of Distribution” value was found to be 3.3 L/kg. Further, in [4] (setting [7]), the Vd/F was found to be 4.3 L/kg. Further, in [4] (setting [8]), the half-life was found to be 19 min. Moreover, the C0 in data set [3] (in vivo, 100 mg/kg) was found to be 100 µM. Also, the half-life in data set [3] (plasma, mice, i.p. 100 mg/Kg, 90% DMSO, read-out: Plasma t1/2) turned out to be 21 min. Besides, the “# ganglia reactivated/# explanted, HSV1 strain McKrae” value in the data set on HSV1, strain McKrae is listed as 4/4. Also, in “physchem”, the logP is 0.833.

The compound `Oc1[nH]c(Nc2ccccc2)nc2ncnc1-2` [H] registered an IC50 against HSV2 TK of 1600 nM.

Regarding `O=C(O)Cn1cnc2c(=O)[nH]c(Nc3ccccc3)nc21` [PG-AA, (N^2 -Phenylguan-9-yl)acetic acid], the Vd/F in data set [4] (setting [7]) was 1.7 L/kg. Further, the half-life in [4] (setting [8]) came out at 33 min; in data set [3] (in vivo, 100 mg/kg), 26.6 min. The C0 in [3] (in vivo, 100 mg/kg) was 246 µM. Further, the “# ganglia reactivated/# explanted, HSV1 strain McKrae” value with HSV1, strain McKrae is listed as 4/4.

Take `O=c1[nH]c(Nc2ccccc2)nc2c1ncn2[C@H]1C[C@H](O)[C@@H](CO)O1` [PhdG, 9-(2-Deoxyribofuranosyl)-N^2-phenylguanine]: in data set [4] (mouse, in vivo, iv, mice, i.v., in saline, pH 11.3, read-out: Volume of Distribution), the Vd came out at 0.4 L/kg. The half-life worked out at 60 min in [4] (setting [10]); 7.5 min in data set [4] (mouse, iv, pH 11.3, mice, in saline, pH 11.3); 60 min in [3] (in vivo, 100 mg/kg, pH 11.4). Further, the C0 in data set [3] (in vivo, 100 mg/kg, pH 11.4) is 11.7 µM. Further, in the data set with HSV1, strain McKrae, the “# ganglia reactivated/# explanted, HSV1 strain McKrae” value is recorded as 1/4. The “# ganglia reactivated/# explanted, HSV1 strain KOS” value in the data set on HSV1, strain KOS is 3/20.

For `CCCNc1nc2c(ncn2[C@H]2C[C@H](O)[C@@H](CO)O2)c(=O)[nH]1` [PrdG, 9-(2-deoxyribofuranosyl)-N^2-n-propylguanine], in data set [1], the IC50 was determined as 20000 nM, the Ki came to 13600 nM and the “Mode of inhibition of VZV TK” value is recorded as “Competitive inhibitor”.

At HSV2 TK, `O=c1[nH]c(Nc2ccccc2)nc2c1ncn2[C@H]1C[C@H](O)[C@@H](CO)O1` [drawing 15] returned an IC50 of 700 nM. In [2], the solubility was determined as 81 µM (≈ 27.8 µg/mL). In “physchem”, the logP was 0.398.

Regarding `O=c1[nH]c(Nc2cccc(C(F)(F)F)c2)nc2nc[nH]c12` [m-CF3 PG, N^2-(m-[trifluoromethyl]phenyl)guanine, reference compound], in data set [4] (mice, i.v., in saline, pH 11.3), the Plasma half-life amounted to 25 min and the “Volume of Distribution” value was determined as 3.0 L/kg. The compound also registered a half-life in [4] (setting [10]) of 140 min. The compound further registered a C0 in data set [3] (in vivo, 100 mg/kg, pH 11.4) of 10.2 µM. Further, the “# ganglia reactivated/# explanted, HSV1 strain McKrae” value in the data set with HSV1, strain McKrae is reported as 0/4. Moreover, in the data set on HSV1, strain KOS, the “# ganglia reactivated/# explanted, HSV1 strain KOS” value was 1/20.
